The subject of one test is RDL receptor F206-F3Phe. As to conditions: Hill coefficient, GABA.
In a further test the test system is GABAA receptor. As to conditions: GABA-activated GABAA receptor; ref Padgett et al., 2007; cited from earlier work.
For the next test, the system named is RDL receptor F146F3Phe. As to conditions: Hill coefficient, GABA.
A further test deals with T1, RDL receptor (WT) (Drosophila melanogaster, UniProt P25123).
T1 sequence (P25123 45-606): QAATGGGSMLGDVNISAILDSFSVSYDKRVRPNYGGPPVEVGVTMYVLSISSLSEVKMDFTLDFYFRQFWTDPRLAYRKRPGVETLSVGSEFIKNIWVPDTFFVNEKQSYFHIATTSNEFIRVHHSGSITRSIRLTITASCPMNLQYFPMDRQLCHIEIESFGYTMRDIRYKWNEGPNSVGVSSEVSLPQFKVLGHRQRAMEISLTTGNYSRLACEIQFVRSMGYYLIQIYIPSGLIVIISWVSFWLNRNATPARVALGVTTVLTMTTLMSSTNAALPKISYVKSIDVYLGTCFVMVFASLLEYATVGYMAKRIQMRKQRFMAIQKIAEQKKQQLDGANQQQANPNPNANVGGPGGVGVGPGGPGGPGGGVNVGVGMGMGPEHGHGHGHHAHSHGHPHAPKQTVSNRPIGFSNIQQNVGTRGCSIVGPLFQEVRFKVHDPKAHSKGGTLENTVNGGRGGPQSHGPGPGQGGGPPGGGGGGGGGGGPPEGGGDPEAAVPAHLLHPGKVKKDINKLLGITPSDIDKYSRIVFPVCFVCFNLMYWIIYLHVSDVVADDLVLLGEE
The experiment in a line: GABA-induced currents, voltage clamp of Xenopus oocytes expressing wild type RDL. In kind it is cell-based. As to conditions: Hill coefficient, mean ± SEM.

In the next test the test system is RDL receptor Y254-FPhe. As to conditions: Hill coefficient, GABA.
For another test, the system named is RDL receptor Y254F3-Phe. As to conditions: Hill coefficient, GABA.
Test [1] relates to RDL mutant (TAG) mRNA without aminoacylated tRNA. The class given is cell-based, Drosophila. As to conditions: 5 mM GABA; mutant mRNA alone or with tRNA-dCA with no amino acid attached.
A further test concerns the target RDL receptor Y254A (Drosophila melanogaster, UniProt P25123, Y254A). The test is described as follows: GABA-induced currents in oocytes, RDL Y254A. As to conditions: Tyr254Ala receptors, GABA up to 100 mM. In kind it is cell-based.
The target of a further test is RDL receptor F146A (Drosophila melanogaster, UniProt P25123, F146A). The experiment in a line: GABA-induced currents in oocytes, RDL F146A. In kind it is cell-based.
RDL receptor F146A, sequence (P25123 45-606 F146A): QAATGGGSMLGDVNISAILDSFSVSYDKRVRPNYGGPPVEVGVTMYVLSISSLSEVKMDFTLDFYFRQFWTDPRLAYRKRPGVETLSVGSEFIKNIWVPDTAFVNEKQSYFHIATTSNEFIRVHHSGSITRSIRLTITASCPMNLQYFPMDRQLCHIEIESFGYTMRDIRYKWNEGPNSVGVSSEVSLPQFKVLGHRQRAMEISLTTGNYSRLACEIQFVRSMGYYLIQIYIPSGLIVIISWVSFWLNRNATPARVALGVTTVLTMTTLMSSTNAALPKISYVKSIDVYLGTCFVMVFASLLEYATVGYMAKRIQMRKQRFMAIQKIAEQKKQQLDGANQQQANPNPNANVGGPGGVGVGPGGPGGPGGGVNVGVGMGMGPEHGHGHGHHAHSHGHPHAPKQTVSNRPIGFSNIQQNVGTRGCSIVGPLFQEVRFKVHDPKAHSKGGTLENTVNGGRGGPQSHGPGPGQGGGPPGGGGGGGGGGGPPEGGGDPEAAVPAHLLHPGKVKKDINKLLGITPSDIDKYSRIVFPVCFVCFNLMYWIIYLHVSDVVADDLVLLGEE
The next test addresses RDL receptor F206Y/Y254F (Drosophila melanogaster, UniProt P25123, F206Y/Y254F). The experiment in a line: GABA-induced currents in oocytes, RDL F206Y/Y254F. As to conditions: Hill coefficient. In kind it is cell-based.
For a further test, the system named is RDL receptor F206-F2Phe. As to conditions: Hill coefficient, GABA.
For another test, the target named is RDL receptor Y254F (Drosophila melanogaster, UniProt P25123, Y254F). The test is described as follows: GABA-induced currents in oocytes, RDL Y254F. In kind it is cell-based.
RDL receptor Y254F, sequence (P25123 45-606 Y254F): as the sequence (P25123 45-606 F146A) above, with A102F, Y210F counted along it
The next test concerns RDL receptor F206-FPhe. As to conditions: Hill coefficient, GABA.
The next test addresses RDL receptor F206Y (Drosophila melanogaster, UniProt P25123, F206Y). The test is described as follows: GABA-induced currents in oocytes, RDL F206Y. In kind it is cell-based.
Another test concerns the target RDL receptor F206A (Drosophila melanogaster, UniProt P25123, F206A). The test is described as follows: GABA-induced currents in oocytes, RDL F206A. As to conditions: Phe206 substituted with Ala, compared to WT. In kind it is cell-based.
A further test has as its system GABAC receptor. As to conditions: GABA-activated GABAC receptor; ref Lummis et al., 2005; cited from earlier work.
The next test deals with RDL receptor Y254F2-Phe. As to conditions: Hill coefficient, GABA.
A further test has as its system RDL receptor. As to conditions: homomers in Xenopus oocytes; ref Zhang et al., 1994; cited from earlier work.

RDL receptor F206Y, sequence (P25123 45-606 F206Y): as the sequence (P25123 45-606 F146A) above, with A102F, F162Y counted along it
RDL receptor F206Y/Y254F, sequence (P25123 45-606 F206Y/Y254F): as the sequence (P25123 45-606 F146A) above, with A102F, F162Y, Y210F counted along it
RDL receptor F206A, sequence (P25123 45-606 F206A): as the sequence (P25123 45-606 F146A) above, with A102F, F162A counted along it
RDL receptor Y254A, sequence (P25123 45-606 Y254A): as the sequence (P25123 45-606 F146A) above, with A102F, Y210A counted along it

With `NCCCC(=O)O` [GABA], the nH stood at 2.0 ± 0.4 in the test with RDL receptor F206-F3Phe; 1.4 ± 0.4 in the test on RDL receptor F146F3Phe; 1.4 ± 0.2 at RDL receptor (WT); 1.3 ± 0.4 with RDL receptor Y254-FPhe; 1.2 ± 0.3 in the test with RDL receptor Y254F3-Phe; 2.1 ± 0.2 on RDL receptor F146A (Hill coefficient, GABA, F146A). Also, the nH on RDL receptor F206Y/Y254F worked out at 1.9 ± 0.5; in the test on RDL receptor F206-F2Phe, 1.8 ± 0.3; on RDL receptor Y254F (Hill coefficient, Y254F), 2.1 ± 0.4; in the test on RDL receptor F206-FPhe, 1.8 ± 0.3; on RDL receptor F206Y (Hill coefficient, F206Y), 2.2 ± 0.3; with RDL receptor Y254F2-Phe, 1.1 ± 0.2. Besides, the results for the “slope of fluorination plot” value in the test on GABAA receptor and in the test on GABAC receptor were 0.29 and 0.21, respectively. In addition, the “currents in response to GABA” value in [1] is “No currents”. Further, the “response to GABA” value on RDL receptor Y254A is recorded as “did not respond”. In addition, the “increase in GABA EC50” value on RDL receptor F146A (Phe146 substituted with Ala, compared to WT) was below 4 fold. The “increase in EC50” value is around 4 fold on RDL receptor Y254F (Tyr254 substituted with Phe, compared to WT) and around 50 fold on RDL receptor F206A. In addition, on RDL receptor F206Y (Phe206Tyr), the “decrease in EC50 compared to WT” value is around 200 fold.

On to picrotoxin, for which the “inhibition of RDL receptors” value with RDL receptor is “inhibited”.

The record behind these values is PMC3233689 (The Journal of neuroscience : the official journal of the …, 2011).
